According to patent US20210085640A1, “ACYLATED CATECHIN POLYPHENOLS AND METHODS OF THEIR USE FOR THE TREATMENT OF CANCER” (Flagship Pioneering Innovations V, Inc., priority 2018, published 2021):

Legend:
Format in all cases: cell-based
[1] = system: T24 bladder cancer cells; test: Cancer cell survival (CellTiter-Glo), T24; details: Homo sapiens; for viability at 0.101 µM: T-24, 101 nM; for viability at 0.101 µM / viability at 0.318 µM / viability at 1 µM / viability at 3 µM / viability at 10 µM / viability at 32 µM / viability at 100 µM / viability at 316 µM / viability at 1000 µM: 72 h, read-out: Cell survival at given concentration; for viability at 0.318 µM: T-24, 318 nM; for viability at 1 µM: T-24, 1 μM; for viability at 3 µM: T-24, 3 μM; for viability at 10 µM: T-24, 10 μM; for viability at 32 µM: T-24, 32 μM; for viability at 100 µM: T-24, 100 μM; for viability at 316 µM: T-24, 316 μM; for viability at 1000 µM: T-24, 1000 μM; for IC50: T-24, 72 h, Table 3.1, read-out: 1050
Method in brief: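 T24 cells seeded at 4×10^3 cells/well overnight, then exposed 72 h at 37 C, 5% CO2 to nine concentrations in triplicate. Survival measured by CellTiter-Glo luminescence relative to untreated and medium controls; IC50 derived.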

[2] = system: Daudi lymphoma cancer cells; test: Cancer cell survival (CellTiter-Glo), Daudi; details: Homo sapiens, 72 h; for viability at 0.101 µM: 101 nM; for viability at 0.101 µM / viability at 0.318 µM / viability at 1 µM / viability at 3 µM / viability at 10 µM / viability at 32 µM / viability at 100 µM / viability at 316 µM / viability at 1000 µM: read-out: Cell survival at given concentration; for viability at 0.318 µM: 318 nM; for IC50: Table 4.1
Method in brief: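 Daudi cells (4×10^3/well) were exposed for 72 h at 37 °C to nine concentrations of compound, added as 10× solutions spanning 1 μM–10 mM (fatty acids) or 100 nM–1 mM (others). CellTiter-Glo luminescence gave % survival versus untreated, medium-blank corrected; IC50 derived.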

[3] = system: MCF7 breast cancer cells; test: Cancer cell survival (CellTiter-Glo), MCF7; details: Homo sapiens, 72 h; for viability at 0.101 µM: 101 nM; for viability at 0.101 µM / viability at 0.318 µM / viability at 1 µM / viability at 3 µM / viability at 10 µM / viability at 32 µM / viability at 100 µM / viability at 316 µM / viability at 1000 µM: read-out: Cell survival at given concentration; for viability at 0.318 µM: 318 nM
Method in brief: (§1)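 Cells seeded at 4×10^3 cells/well, incubated overnight, then treated in triplicate at nine concentrations for 72 h at 37 C, 5% CO2. Viability by CellTiter-Glo luminescence, survival % normalized to untreated and medium controls; IC50 derived.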

[4] = system: HCT 116 colorectal cancer cells; test: Cancer cell survival (CellTiter-Glo), HCT 116; details: Homo sapiens, HCT 116 cells, 72 h; for viability at 0.101 µM: 101 nM; for viability at 0.101 µM / viability at 0.318 µM / viability at 1 µM / viability at 3 µM / viability at 10 µM / viability at 32 µM / viability at 100 µM / viability at 316 µM / viability at 1000 µM: read-out: Cell survival at given concentration; for viability at 0.318 µM: 318 nM; for IC50: Table 6.1
Method in brief: as §1

[5] = system: A549 lung cancer cells; test: Cancer cell survival (CellTiter-Glo), A549; details: Homo sapiens, 72 h; for viability at 0.101 µM: 101 nM; for viability at 0.101 µM / viability at 0.318 µM / viability at 1 µM / viability at 3 µM / viability at 10 µM / viability at 32 µM / viability at 100 µM / viability at 316 µM / viability at 1000 µM: read-out: Cell survival at given concentration; for viability at 0.318 µM: 318 nM
Method in brief: as §1

[6] = system: PC-3 prostate cancer cells; test: Cancer cell survival (CellTiter-Glo), PC-3; details: Homo sapiens, PC-3 cells, 72 h; for viability at 0.101 µM: 101 nM; for viability at 0.101 µM / viability at 0.318 µM / viability at 1 µM / viability at 3 µM / viability at 10 µM / viability at 32 µM / viability at 100 µM / viability at 316 µM / viability at 1000 µM: read-out: Cell survival at given concentration; for viability at 0.318 µM: 318 nM
Method in brief: as §1

[7] = system: A-431 skin cancer cells; test: Cancer cell survival (CellTiter-Glo), A-431; details: Homo sapiens, A-431 cells, 72 h; for viability at 0.101 µM: 101 nM; for viability at 0.101 µM / viability at 0.318 µM / viability at 1 µM / viability at 3 µM / viability at 10 µM / viability at 32 µM / viability at 100 µM / viability at 316 µM / viability at 1000 µM: read-out: Cell survival at given concentration; for viability at 0.318 µM: 318 nM; for IC50: Table 9.1
Method in brief: as §1

[8] = system: AGS stomach cancer cells; test: Cancer cell survival (CellTiter-Glo), AGS; details: for viability at 0.101 µM / viability at 0.318 µM / viability at 1 µM / viability at 3 µM / viability at 10 µM / viability at 32 µM / viability at 100 µM / viability at 316 µM / viability at 1000 µM: 72 h; for viability at 0.101 µM: 101 nM; for viability at 0.101 µM / viability at 0.318 µM / viability at 316 µM / viability at 1000 µM: read-out: Cell survival at given concentration; for viability at 0.318 µM: 318 nM; for viability at 1 µM / viability at 3 µM / viability at 10 µM / viability at 32 µM / viability at 100 µM: Table 10.1, read-out: Cell survival at given concentration
Method in brief: as §1

## O=c1cc(-c2ccc(O)cc2)oc2cc(O)cc(O)c12 [apigenin]
[1]
  viability at 0.101 µM: 98%
  viability at 0.318 µM: 100%
  viability at 1 µM: 102%
  viability at 3 µM: 105%
  viability at 10 µM: 98%
  viability at 32 µM: 79%
  viability at 100 µM: 60%
  viability at 316 µM: 42%
  viability at 1000 µM: 32%
  IC50: 161 µM
[2]
  viability at 0.101 µM: 97%
  viability at 0.318 µM: 96%
  viability at 1 µM: 101%
  viability at 3 µM: 101%
  viability at 10 µM: 103%
  viability at 32 µM: 86%
  viability at 100 µM: 60%
  viability at 316 µM: 47%
  viability at 1000 µM: 44%
  IC50: 186 µM
[3]
  viability at 0.101 µM: 98%
  viability at 0.318 µM: 99%
  viability at 1 µM: 98%
  viability at 3 µM: 100%
  viability at 10 µM: 102%
  viability at 32 µM: 89%
  viability at 100 µM: 82%
  viability at 316 µM: 76%
  viability at 1000 µM: 73%
[4]
  viability at 0.101 µM: 99%
  viability at 0.318 µM: 100%
  viability at 1 µM: 100%
  viability at 3 µM: 99%
  viability at 10 µM: 98%
  viability at 32 µM: 60%
  viability at 100 µM: 32%
  viability at 316 µM: 19%
  viability at 1000 µM: 15%
  IC50: 45.8 µM
[5]
  viability at 0.101 µM: 101%
  viability at 0.318 µM: 102%
  viability at 1 µM: 102%
  viability at 3 µM: 98%
  viability at 10 µM: 102%
  viability at 32 µM: 100%
  viability at 100 µM: 82%
  viability at 316 µM: 67%
  viability at 1000 µM: 62%
[6]
  viability at 0.101 µM: 100%
  viability at 0.318 µM: 100%
  viability at 1 µM: 98%
  viability at 3 µM: 102%
  viability at 10 µM: 107%
  viability at 32 µM: 98%
  viability at 100 µM: 82%
  viability at 316 µM: 72%
  viability at 1000 µM: 70%
[7]
  viability at 0.101 µM: 101%
  viability at 0.318 µM: 100%
  viability at 1 µM: 100%
  viability at 3 µM: 102%
  viability at 10 µM: 100%
  viability at 32 µM: 83%
  viability at 100 µM: 58%
  viability at 316 µM: 47%
  viability at 1000 µM: 45%
  IC50: 178 µM
[8]
  viability at 0.101 µM: 99%
  viability at 0.318 µM: 102%
  viability at 1 µM: 104%
  viability at 3 µM: 101%
  viability at 10 µM: 106%
  viability at 32 µM: 102%
  viability at 100 µM: 89%
  viability at 316 µM: 71%
  viability at 1000 µM: 64%

## O=c1cc(-c2ccc(O)c(O)c2)oc2cc(O)cc(O)c12 [luteolin]
[1]
  viability at 0.101 µM: 99%
  viability at 0.318 µM: 102%
  viability at 1 µM: 103%
  viability at 3 µM: 94%
  viability at 10 µM: 85%
  viability at 32 µM: 35%
  viability at 100 µM: 9%
  viability at 316 µM: 8%
  viability at 1000 µM: 6%
  IC50: 22.8 µM
[2]
  viability at 0.101 µM: 100%
  viability at 0.318 µM: 102%
  viability at 1 µM: 103%
  viability at 3 µM: 106%
  viability at 10 µM: 85%
  viability at 32 µM: 33%
  viability at 100 µM: 10%
  viability at 316 µM: 6%
  viability at 1000 µM: 16%
  IC50: 21.6 µM
[3]
  viability at 0.101 µM: 96%
  viability at 0.318 µM: 99%
  viability at 1 µM: 103%
  viability at 3 µM: 104%
  viability at 10 µM: 108%
  viability at 32 µM: 60%
  viability at 100 µM: 31%
  viability at 316 µM: 26%
  viability at 1000 µM: 24%
[3]; Table 5.1
  IC50: 36 µM
[4]
  viability at 0.101 µM: 100%
  viability at 0.318 µM: 98%
  viability at 1 µM: 101%
  viability at 3 µM: 97%
  viability at 10 µM: 93%
  viability at 32 µM: 29%
  viability at 100 µM: 2%
  viability at 316 µM: 6%
  viability at 1000 µM: 1%
  IC50: 23.8 µM
[5]
  viability at 0.101 µM: 96%
  viability at 0.318 µM: 98%
  viability at 1 µM: 100%
  viability at 3 µM: 100%
  viability at 10 µM: 101%
  viability at 32 µM: 84%
  viability at 100 µM: 37%
  viability at 316 µM: 13%
  viability at 1000 µM: 10%
[5]; Table 7.1
  IC50: 74.2 µM
[6]
  viability at 0.101 µM: 100%
  viability at 0.318 µM: 99%
  viability at 1 µM: 100%
  viability at 3 µM: 102%
  viability at 10 µM: 96%
  viability at 32 µM: 74%
  viability at 100 µM: 52%
  viability at 316 µM: 23%
  viability at 1000 µM: 23%
[6]; Table 8.1
  IC50: 93.5 µM
[7]
  viability at 0.101 µM: 101%
  viability at 0.318 µM: 99%
  viability at 1 µM: 102%
  viability at 3 µM: 101%
  viability at 10 µM: 99%
  viability at 32 µM: 61%
  viability at 100 µM: 39%
  viability at 316 µM: 20%
  viability at 1000 µM: 4%
  IC50: 71.8 µM
[8]
  viability at 0.101 µM: 99%
  viability at 0.318 µM: 100%
  viability at 1 µM: 103%
  viability at 3 µM: 106%
  viability at 10 µM: 106%
  viability at 32 µM: 77%
  viability at 100 µM: 29%
  viability at 316 µM: 8%
  viability at 1000 µM: 3%
[8]; Table 10.1
  IC50: 68.2 µM
